Measured values published in US20090017105A1, “PROLIPOSOMAL AND LIPOSOMAL COMPOSITIONS OF POORLY WATER SOLUBLE DRUGS” (priority 2007, published 2009).
Structures can show the parent of a compound that is named as a salt. Where two headings read alike, the source gives them in different places.

Columns and labels:
[1] = cited from earlier work; for entrapment in the liposomes: Mayhew et al., U.S. Pat. No. 5,939,567 and 6,118,011
[2] = Ogawa et al., U.S. Pat. No. 5,094,854, cited from earlier work
[3] = system: DU145; assay: In vitro cytotoxicity, 72 hour MIT assay; format: cell-based; conditions: Homo sapiens, DU-145; Prostrate, DU145, 72 hour
Source text: (§1) The cytotoxicity of the Liposomal composition of Docetaxel (hereinafter referred to as “LD”) in vitro in a panel of human cancer cell lines, expected to be sensitive to Docetaxel and the effects were compared with the conventional, approved, marketed composition of Docetaxel, viz. Taxotere® (hereinafter referred to as “CD”). A solution of bulk Docetaxel in DMSO was taken as a positive control for the studies.

[4] = system: MDA MB 453; assay: In vitro cytotoxicity, 72 hour MIT assay; format: cell-based; conditions: Homo sapiens; Breast, MDA MB 453, 72 hour
Source text: as §1

[5] = system: PAI; assay: In vitro cytotoxicity, 72 hour MIT assay; format: cell-based; conditions: Homo sapiens, Ovary
Source text: as §1

[6] = system: SKOV3; assay: In vitro cytotoxicity, 72 hour MIT assay; format: cell-based; conditions: Homo sapiens, SK-OV-3; Ovary, SKOV3, 72 hour
Source text: as §1

[7] = cited from earlier work
[8] = Durr et al., U.S. Pat. No. 5,670,536; cited from earlier work
[9] = liposome system of Hager et al.

Molecule: CCCCCC(=O)OC(C(=O)OC1CC2(O)C(OC(=O)c3ccccc3)C3C4(OC(C)=O)COC4CC(O)C3(C)C(=O)C(OC(C)=O)C(=C1C)C2(C)C)C(NC(=O)c1ccccc1)c1ccccc1 (stereo not shown) [2′-caproyl Paclitaxel]
- entrapment in the liposomes [1]: about 70%

Molecule: CCCCCC(=O)OC1CC2OCC2(OC(C)=O)C2C(OC(=O)c3ccccc3)C3(O)CC(OC(=O)C(O)C(NC(=O)c4ccccc4)c4ccccc4)C(C)=C(C(OC(C)=O)C(=O)C12C)C3(C)C (stereo not shown) [7-caproyl Paclitaxel]
- entrapment in the liposomes [1]: about 90%

Molecule: N.N.[Cl][Pt][Cl] [Cisplatin]
- rate of release of the drug ([2]; 39° C.): hardly anything
- rate of release of the drug ([2]; 42° C.): 30 to 95%

Molecule: CC(=O)O[C@@]12CO[C@@H]1C[C@H](O)[C@@]1(C)C(=O)[C@H](O)C3=C(C)[C@@H](OC(=O)[C@H](O)[C@@H](NC(=O)OC(C)(C)C)c4ccccc4)C[C@@](O)([C@@H](OC(=O)c4ccccc4)[C@H]21)C3(C)C [Docetaxel Solution in DMSO, Docetaxel]
- IC50 [3]: 5.13 ± 1.28 nM
- IC50 [4]: 15.1 ± 2.3 nM
- IC50 [5]: < 0.01 nM
- IC50 [6]: 9.87 ± 2.74 nM
- period for which liposomal compositions remain clear ([7]; Durr et al., U.S. Pat. No. 5,670,536, 20° C.): more than eight weeks
- particle diameter [8]: 47 to 71 nm

Molecule: COc1cccc2c1C(=O)c1c(O)c3c(c(O)c1C2=O)C[C@@](O)(C(=O)CO)C[C@@H]3O[C@H]1C[C@H](N)[C@H](O)[C@H](C)O1 [Doxorubicin hydrochloride]
- encapsulation ([1]; liposome system of Hager et al., U.S. Pat. No. 5,556,637 and 5,741,517): 78%

Molecule: COc1cccc2c1C(=O)c1c(O)c3c(c(O)c1C2=O)C[C@@](O)(C(=O)CO)C[C@@H]3O[C@H]1C[C@H](N)[C@H](O)[C@H](C)O1 [Doxorubicin]
- drop in potency ([7]; lyophilized liposomal composition of Huang et al., WO 92/02208, in two weeks): 10-15%
- drug entrapment in the liposomes ([1]; liposomes of Barenholz et al., U.S. Pat. No. 4,797,285 and 4,898,735): 85-90%
- entrapment of the drug ([1]; thermosensitive liposomes of Needham et al., U.S. Pat. No. 6,200,598 and 6,726,925 B1): not more than 80%

Molecule: Quinoline yellow
- liposome-bound active principle [1, 9]: 1.38 mg/mL
- non-liposomal-bound active principle [1, 9]: about 3.2 mg/ml
